These results are taken from patent US11896560B2, “Cannabinoid dosing regime for dermatitis and inflammatory skin conditions” (Botanix Pharmaceuticals LTD, priority 2018, dated 2024).

One data set deals with rats. Conditions: injected into rats; cited from earlier work.
Data set [1] in a line: Skin permeation of CBD formulation in Franz-type diffusion cell. In kind it is in vitro ADME. As to the method:
Dermatomed skin from a single donor was mounted in a Franz-type diffusion cell (0.55 cm^2 receptor fluid exposure surface area) and dosed with 5 ul of CBD formulated in an mixture of a volatile solvent (hexylmethyldisiloxane/polymethylsiloxane—93% w/w), and residual solvent (arlamol E—2% w/w) at a concentration of 5.0% (w/w; 35.5 mg/ml). Following dosing, receptor phase samples were collected at 4, 10, 24 and 48 hours; after which the study was terminated.
The residual formulation was removed by tape stripping and the epidermis and dermis separated by blunt dissection. The levels of CBD in the epidermis, dermis, and receptor fluid samples were then analyzed using a bioanalytical method with LC-MS/MS detection.

Data set [2] deals with human vanilloid receptor type 1 (VR1) (Homo sapiens, UniProt Q8NER1). Particulars: in vitro; cited from earlier work.
The test system of a further data set is sensitized guinea-pigs. Conditions: intravenous administration; cited from earlier work.
The test system of a further data set is anandamide. Conditions: in vitro; cited from earlier work.
Setting [3] is: 5.0% w/w CBD formulation, 48-hour period.
Where [4] appears, read: 5 ul of 5.0% w/w CBD formulation, over the 48-hour exposure period.
The mark [5] stands for this setting: following application of CBD mixture, 48 hours.

Bounds are passed on as bounds.

Chain of human vanilloid receptor type 1 (VR1) (Q8NER1 whole entry): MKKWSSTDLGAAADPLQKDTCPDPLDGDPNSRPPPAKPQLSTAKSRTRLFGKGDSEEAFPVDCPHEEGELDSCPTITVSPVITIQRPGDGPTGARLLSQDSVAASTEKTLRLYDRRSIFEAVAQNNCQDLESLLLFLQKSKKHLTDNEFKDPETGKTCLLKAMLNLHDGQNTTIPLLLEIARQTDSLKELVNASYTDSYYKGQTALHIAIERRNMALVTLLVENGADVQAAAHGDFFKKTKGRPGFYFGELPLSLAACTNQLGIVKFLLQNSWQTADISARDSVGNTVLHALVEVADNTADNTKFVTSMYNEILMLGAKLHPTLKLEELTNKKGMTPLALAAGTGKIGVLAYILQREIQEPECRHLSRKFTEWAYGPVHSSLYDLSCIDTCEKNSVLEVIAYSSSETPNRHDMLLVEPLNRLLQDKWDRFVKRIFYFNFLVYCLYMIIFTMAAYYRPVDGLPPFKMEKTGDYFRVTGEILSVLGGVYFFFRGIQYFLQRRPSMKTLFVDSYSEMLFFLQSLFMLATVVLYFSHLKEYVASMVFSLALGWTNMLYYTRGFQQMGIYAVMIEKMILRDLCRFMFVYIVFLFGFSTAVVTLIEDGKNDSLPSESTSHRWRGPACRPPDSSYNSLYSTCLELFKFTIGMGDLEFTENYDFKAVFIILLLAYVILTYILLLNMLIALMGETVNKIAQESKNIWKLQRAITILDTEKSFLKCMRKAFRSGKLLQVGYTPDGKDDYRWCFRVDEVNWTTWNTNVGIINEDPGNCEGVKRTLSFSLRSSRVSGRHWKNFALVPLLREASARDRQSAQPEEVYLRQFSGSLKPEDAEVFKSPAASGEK

Take `C=C(C)C1CCC(C)=CC1c1c(O)cc(CCCCC)cc1O` (centres unmarked) [CBD, 2-[3-methyl-6-(1-methylethenyl)-2-cyclohexen-1-yl]-5-pentyl-1,3-benzenediol]: in the data set on rats, the “effect on cardiac inflammation” value is given as “attenuated cardiac inflammation”. Moreover, in data set [1] (setting [3]), the “dermal deposition of CBD” value is 4.54 % of the applied dose and the “epidermal deposition of CBD” value was 13.17 % of the applied dose. Further, in data set [1] (setting [4]), the “CBD in the receptor phase (skin permeation), amount per area” value was below 278 ng/cm^2 and the “CBD in the receptor phase (skin permeation), percent of applied dose” value was “less than 0.081%”. In data set [1] (setting [5]), the “dermis concentration per area” value is recorded as 8,408 ng/cm^2, the “dermis concentration per tissue weight” value is 1,933 ng/g of tissue and the “dermis concentration per volume” value is ~1,933 ng/mL. Further, the “effect on human vanilloid receptor type 1 (VR1)” value in data set [2] is “stimulate”. Also, in the data set on sensitized guinea-pigs, the “effect on airway obstruction” value is “reduced airway obstruction”. Further, the effect on anandamide result in the data set on anandamide was “inhibit”.
